Test results as given in patent US7514446B2, “Pyrimidine compounds” (SmithKline Beecham Corporation, priority 2003, dated 2009).
Where a name gives a salt, the structure may show the parent alone.

Legend:
[1] = test system: HCT116 colon tumor cell line; experiment: Methylene Blue Growth Inhibition Assay, HCT116; format: cell-based; details: Homo sapiens, HCT-116, 72 h; HCT116 cells, 3 days; read-out: MeB Cell Line IC50
Description: (§1) II. Methylene Blue Growth Inhibition Assay
(§2) Normal Human foreskin fibroblasts (HFF) and human colon (HCT116, RKO), lung (H460), prostate (PC3), and breast tumor (MCF7) cell lines were cultured in high glucose DMEM (Life Technologies) containing 10% fetal bovine serum (FBS) at 37° C. in a humidified 10% CO2, 90% air incubator. Cells were harvested using trypsin/EDTA, counted using a haemocytometer, and plated in 100 μl of the appropriate media, at the following densities, in a 96-well tissue culture plate (Falcon 3075): HFF 5,000 cells/well, HCT116 3,000 cells/well, RKO 2,500 cells/well, H460 2,000 cells/well, PC3 8,000 cells/well, MCF7 4,000 cells/well. The next day, compounds were diluted in DMEM containing 100 μg/ml gentamicin, at twice the final required concentration, from 10 mM stock solutions in DMSO. 100 μl/well of these dilutions were added to the 100 μl of media currently on the cell plates. Medium containing 0.6% DMSO was added to control wells. Compounds diluted in DMEM were added to all cell lines. The final concentration of DMSO in all wells was 0.3%. Cells were incubated at 37° C., 10% CO2 for 3 days. Medium was removed by aspiration. Cell biomass was estimated by staining cells with 90 μl per well methylene blue (Sigma M9140, 0.5% In 50:50 ethanol:water), and incubation at room temperature for at least 30 minutes. Stain was removed, and the plates rinsed under a gentle stream of water, and air-dried. To release stain from the cells 100 μl of solubilization solution was added (1% N-lauroyl sarcosine, Sodium salt, Sigma L5125, in PBS), and plates were shaken gently for about 30 minutes. Optical density at 620 nm was measured on a microplate reader. Percent inhibition of cell growth was calculated relative to vehicle treated control wells. Concentration of compound that inhibits 50% of cell growth (IC50) was interpolated using nonlinear regression (Levenberg-Marquardt) and the equation, y=Vmax*(1−(x/(K+x)))+Y2, where “K” was equal to the IC50. In Table 1, +=10->30 uM; ++=1-10 uM: +++=<1 uM.

[2] = test system: RKO colon tumor cell line; experiment: Methylene Blue Growth Inhibition Assay, RKO; format: cell-based; details: Homo sapiens, 72 h; RKO cells, 3 days; read-out: MeB Cell Line IC50
Description: as §1, §2

[3] = test system: Normal Human foreskin fibroblasts (HFF); experiment: Methylene Blue Growth Inhibition Assay, HFF; format: cell-based; details: 72 h, HFF cells, 3 days, read-out: MeB Cell Line IC50
Description: as §1, §2

[4] = test system: PC3 prostate tumor cell line; experiment: Methylene Blue Growth Inhibition Assay, PC3; format: cell-based; details: Homo sapiens, PC-3, 72 h; PC3 cells, 3 days; read-out: MeB Cell Line IC50
Description: as §1, §2

[5] = test system: MCF7 breast tumor cell line; experiment: Methylene Blue Growth Inhibition Assay, MCF7; format: cell-based; details: Homo sapiens, 72 h; MCF7 cells, 3 days; read-out: MeB Cell Line IC50
Description: as §1, §2

[6] = test system: H460 lung tumor cell line; experiment: Methylene Blue Growth Inhibition Assay, H460; format: cell-based; details: Homo sapiens, NCI-H460, 72 h; H460 cells, 3 days; read-out: MeB Cell Line IC50
Description: as §1, §2

PLK1 kinase domain = biological target: T1, PLK1 kinase domain (Homo sapiens, UniProt P53350); experiment: Assay for inhibition of PLK1 (SPA, 33P-ATP, His-tagged PLK kinase domain); format: biochemical; details: 2 μM ATP, read-out: Ave pIC50 PLK Enzyme Inhibition (converted)
T1 construct: made in house; host or cells: baculovirus-infected T. ni insect cells
T1 sequence (P53350 21-346): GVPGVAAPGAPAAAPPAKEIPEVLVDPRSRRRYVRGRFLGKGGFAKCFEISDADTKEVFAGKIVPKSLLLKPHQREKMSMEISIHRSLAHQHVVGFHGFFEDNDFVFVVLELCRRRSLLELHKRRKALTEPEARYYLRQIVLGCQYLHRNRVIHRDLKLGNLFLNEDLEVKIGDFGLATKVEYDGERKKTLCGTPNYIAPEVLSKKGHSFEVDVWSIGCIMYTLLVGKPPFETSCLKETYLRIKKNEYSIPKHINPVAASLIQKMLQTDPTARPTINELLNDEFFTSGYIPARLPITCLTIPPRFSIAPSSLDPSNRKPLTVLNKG
Description: I. Assay for Inhibition of PLK1
A. Preparation of 6× N-terminal His-tagged PLK Kinase Domain
6× N-terminal His-tagged PLK kinase domain (amino acids 21-346 preceded by […]) was prepared from baculovirus infected T. ni cells under polyhedrin promoter control. All procedures were performed at 4° C. Cells were lysed in 25 mM HEPES, 200 mM NaCl, 25 mM imidazole; pH 8.0. The homogenate was centrifuged at 14K rpm in a SLA-1500 rotor for 40 min and the supernatant filtered through a 1.2 micron filter. The supernatant was loaded onto a Nickel chelating Sepharose (Amersham Pharmacia) column and washed with 25 mM HEPES, 500 mM NaCl, 25 mM imidazole; pH 8.0. The column was then washed with a 16.6% B step where buffer B is 25 mM HEPES, 500 mM NaCl, 300 mM imidazole; pH 8.0. Protein was eluted using a 10-column volume linear gradient from 16.6% B to 100% B. Fractions containing PLK were determined by SDS-PAGE. PLK was concentrated using a 10 kDa molecular weight cutoff membrane and then loaded onto a Superdex 75 gel filtration (Amersham Pharmacia) column equilibrated in 25 mM HEPES, 1 mM DTT, 500 mM NaCl; pH 8.0. Fractions containing PLK were determined by SDS-PAGE. PLK was pooled, aliquoted and stored at −80° C. Samples were quality controlled using mass spectrometry.
B. Enzyme Activity+/−Inhibitors was Determined as Follows:
Compounds were added to the plate (1 μl in 100% DMSO). DMSO (2% final) and EDTA (55.5 mM final) were used as controls. Reaction Mix A is prepared as follows at 4° C.:
Reaction Mix A (substrate Mix): • 25 mM HEPES, pH 7.2 • 15 mM MgCl2 • 2 μM ATP • 0.1 μCi/well ^33P-γ ATP (10 Ci/mMol) • 2 μM substrate peptide (Biotin-Ahx-[…]) Reaction Mix B is prepared as follows at 4° C.:
Reaction Mix B (Enzyme Mix) • 25 mM HEPES, pH 7.2 • 15 mM MgCl2 • 0.15 mg/ml BSA • 2 mM DTT • 2-10 nM PLK1 kinase domain
Reaction Mix A (20 μl) is added per well. Reaction Mix B (20 μl) is added per well. Incubate 1.5 hrs. at RT. The enzymatic reaction is stopped with 175 μl of SPA/EDTA bead mix (29 mM EDTA, 2.5 mg/ml Streptavidin-coated SPA in Standard Dulbecco's PBS (without Mg^2+ and Ca^2+), 60 μM ATP). Plates are sealed spun (after a 1 hr incubation at RT) at 1,000×g for 7 min or settled overnight, then plates counted in Packard TopCount for 30 seconds/well.

Molecule `CC(=O)Nc1ccc(Nc2ncc([N+](=O)[O-])c(Nc3ccccc3C(=O)c3ccccc3)n2)cc1` [Example 7, N-[4-({4-[(2-benzoylphenyl)amino]-5-nitropyrimidin-2-yl}amino)phenyl]acetamide hydrochloride] has an IC50 [1] of 1 to 10 µM, an IC50 [2] of 1 to 10 µM and an IC50 [3] greater than 10 µM. The IC50 [4] was 1 to 10 µM, the IC50 [5] was 1 to 10 µM and the IC50 [6] was 1 to 10 µM. The IC50 (PLK1 kinase domain) was less than 0.1 µM.
`COc1cc(Nc2ncc([N+](=O)[O-])c(Nc3cccc4c3C(=O)CCC4)n2)cc(OC)c1OC` [Example 9, 8-({5-nitro-2-[(3,4,5-trimethoxyphenyl)amino]pyrimidin-4-yl}amino)-3,4-dihydronaphthalen-1(2H)-one hydrochloride] gave an IC50 [1] of 1 to 10 µM, an IC50 [2] of 1 to 10 µM and an IC50 [3] greater than 10 µM. For the same molecule, the IC50 [4] was 1 to 10 µM, the IC50 [5] was 1 to 10 µM and the IC50 [6] was 1 to 10 µM. For the same molecule, the IC50 (PLK1 kinase domain) was less than 0.1 µM.
Molecule `COc1cc(Nc2ncc([N+](=O)[O-])c(Nc3cccc4[nH]ccc34)n2)cc(OC)c1OC` [Example 15, N^4-(1H-indol-4-yl)-5-nitro-N^2-(3,4,5-trimethoxyphenyl)pyrimidine-2,4-diamine hydrochloride] has an IC50 [1] of 1 to 10 µM, an IC50 [2] of less than 1 µM and an IC50 [3] of 1 to 10 µM. It also gave an IC50 [4] of 1 to 10 µM, an IC50 [5] of 1 to 10 µM and an IC50 [6] of 1 to 10 µM. For the same molecule, the IC50 (PLK1 kinase domain) was less than 0.1 µM.
With `COc1cc(Nc2ncc([N+](=O)[O-])c(Nc3cccc4c3OCCO4)n2)cc(OC)c1OC` [Example 19, N^4-(2,3-dihydro-1,4-benzodioxin-5-yl)-5-nitro-N^2-(3,4,5-trimethoxyphenyl)pyrimidine-2,4-diamine hydrochloride] the IC50 [1] was greater than 10 µM, the IC50 [2] was 1 to 10 µM and the IC50 [3] was greater than 10 µM. For the same molecule, the IC50 [4] was greater than 10 µM, the IC50 [5] was 1 to 10 µM and the IC50 [6] was 1 to 10 µM. The IC50 (PLK1 kinase domain) was less than 0.1 µM.
`COc1cc(Nc2ncc([N+](=O)[O-])c(Nc3ccc(O)cc3C(=O)O)n2)cc(OC)c1OC` [Example 22, 5-Hydroxy-2-({5-nitro-2-[(3,4,5-trimethoxyphenyl)amino]pyrimidin-4-yl}amino)benzoic acid hydrochloride] gave an IC50 [1] greater than 10 µM, an IC50 [2] greater than 10 µM and an IC50 [3] greater than 10 µM. For the same molecule, the IC50 [4] was greater than 10 µM, the IC50 [5] was greater than 10 µM and the IC50 [6] was greater than 10 µM. The IC50 (PLK1 kinase domain) was less than 0.1 µM.
With `COc1cc(Nc2ncc([N+](=O)[O-])c(Nc3ccccc3C(=O)NC3CCCCC3)n2)cc(OC)c1OC` [Example 34, N-Cyclohexyl-2-({5-nitro-2-[(3,4,5-trimethoxyphenyl)amino]pyrimidin-4-yl}amino)benzamide hydrochloride] the IC50 [1] was 1 to 10 µM, the IC50 [2] was 1 to 10 µM and the IC50 [3] was 1 to 10 µM. It also gave an IC50 [4] greater than 10 µM, an IC50 [5] of 1 to 10 µM and an IC50 [6] of 1 to 10 µM. The IC50 (PLK1 kinase domain) was less than 0.1 µM.
`COc1cc(Nc2ncc([N+](=O)[O-])c(Nc3ccc(Cl)cc3C(=O)c3ccccc3F)n2)cc(OC)c1OC` [Example 36, [5-Chloro-2-({5-nitro-2-[(3,4,5-trimethoxyphenyl)amino]pyrimidin-4-yl}amino)phenyl](2-fluorophenyl)methanone hydrochloride] was tested, and the IC50 [1] was 1 to 10 µM, the IC50 [2] was 1 to 10 µM and the IC50 [3] was greater than 10 µM. For the same molecule, the IC50 [4] was greater than 10 µM, the IC50 [5] was 1 to 10 µM and the IC50 [6] was 1 to 10 µM. The IC50 (PLK1 kinase domain) was less than 0.1 µM.
In the case of `COc1cc(Nc2ncc(C#N)c(Nc3ccccc3C(=O)c3ccc(C)cc3)n2)cc(OC)c1OC` [Example 39, 4-{[2-(4-Methylbenzoyl)phenyl]amino}-2-[(3,4,5-trimethoxyphenyl)amino]pyrimidine-5-carbonitrile], the IC50 [1] is reported as 1 to 10 µM, the IC50 [2] is reported as 1 to 10 µM and the IC50 [3] is reported as greater than 10 µM. The IC50 [4] was 1 to 10 µM, the IC50 [5] was 1 to 10 µM and the IC50 [6] was 1 to 10 µM. It also gave an IC50 (PLK1 kinase domain) of less than 0.1 µM.
